{"source": "patent US20260272950A1", "about": "“METHOD OF TREATMENT OF A NEURONAL PATHOLOGY RELATED TO HYPOXIA, HYPOGLYCEMIA AND/OR HYPERGLYCEMIA” (priority 2019, published 2026)", "key": {"[1]": {"test_system": "primary culture of cortical neurons", "assay": "Neuronal survival evaluation via trypan blue (cell membrane integrity) in in vitro model of ischemia/reperfusion (OGD)", "type": "cell-based, mouse", "conditions": "for overall conclusion: neuroprotective effect against cerebral ischemia: conclusion drawn from all of the results (Examples 2 to 8); for neuronal protection (trypan blue): Example 7, FIG. 7, 4 h of OGD then 24 h of reperfusion", "experimental": "(§1) More specifically, the cells taken are grown in a Neurobasal™ medium (ref. 21103049 ThermoFisher Scientific) to which L-glutamine and B27 supplement 50X (ref. 17504044 ThermoFisher Scientific) have been added (step 2). The neurons from the primary culture are then isolated and purified. It should be noted that it is the culture conditions in themselves which make it possible to obtain a purified culture of neurons from the dissociation of the embryonic cortexes. Oxygen and glucose deprivation (OGD) is then carried out (step 3) on these neurons in order to mimic as closely as possible what happens in vivo during a stroke, that is to say a decrease in oxygen and glucose supply due to a decrease in blood perfusion for the cells. In order to carry out this oxygen and glucose deprivation mimicking ischemia, the neurons are placed, for 4 h, in an incubator of which the atmosphere has an oxygen content of approximately 1% and with the culture medium being replaced with a glucose-free medium (step 3). Since the ischemia model is an “ischemia/reperfusion” model, the neurons are then placed in a medium containing glucose under normoxic conditions for 24 h (reperfusion) (step 4) following the ischemia step. Neuron group A is a group of neurons having been treated with a solution of compound of formula (I) during the OGD and the reperfusion, that is to say that a molecule of table 1 is added to glucose-free medium as soon as the oxygen and glucose deprivation begins (step 3). […] The concentration of the other molecules of table 1 is 100 nmol·L^−1 in the glucose-free medium. Neuron group B is a group of neurons having been treated with a solution of DX243 during the reperfusion only (step 4), in order to be closer to what occurs clinically, namely the possible treatment only after several hours with a conventional treatment. The DX243 solution is added to the glucose-free medium as soon as the reperfusion begins (step 4). The DX243 concentration is between 1 nmol. L^−1 and 1 μmol·L^−1 in the glucose-free medium.\n(§2) The negative control consists of a group of neurons undergoing OGD (step 3) followed by reperfusion (step 4) without DX243 being present. This group of neurons is called “Ctrl” in FIGS. 2 to 4. The normal control consists of a group of neurons from the primary culture placed under normoxic conditions for 28 h. The normal control is called “normox” in FIGS. 2 to 4. The positive control consists of a group of neurons from the primary culture having undergone OGD for 4 h (step 3) in the presence of roscovitine, which is a cell cycle inhibitor, leading to neuronal protection, followed by reperfusion for 24 h (step 4). The positive control is called “ROSCO” in FIGS. 2 to 4.\n(§3) At the end of the reperfusion (step 4), 24 h after the OGD, the survival of the neurons is evaluated by means of three different tests: an immunocytochemical test 5, an MTT (3-(4,5-dimethylthiazol-2-yl)-2,5-diphenyltetrazolium bromide) test 6 and a test based on the cell membrane integrity via the use of trypan blue 7. The results are then compared to the results of the three control-group survival tests.\nA third cell survival test in the case of the use of DX243, based on cell membrane integrity, which is ruptured in dead cells, was carried out. The latter test uses trypan blue which will stain the dead cells blue. The calculation of the percentage of live cells was consequently performed by counting the proportion of blue and non-blue cells, and related to the percentage of live cells observed in the normox group. The results obtained were reported in graph A of FIG. 4 for group A and in graph B of FIG. 4 for group B.\nFor all the molecules of table I other than DX243 used on group A, the third cell survival test was carried out. The results obtained were reported on the graph of FIG. 5, with the results obtained with DX243 being included therein. The sign NT means not treated. […]"}, "[2]": {"test_system": "primary culture of cortical neurons", "assay": "MTT neuronal survival evaluation test in in vitro model of ischemia/reperfusion (OGD)", "type": "cell-based, mouse", "conditions": "for neuronal protection (MTT): Example 6, FIG. 6, 100 nM, 4 h of OGD then 24 h of reperfusion", "experimental": "as §1, §2, §3\nIn order to confirm the results obtained with DX243, a test based on the metabolic activity of the neurons was carried out to evaluate neuronal survival in another way. This test is based on the use of the tetrazolium salt MTT (3-(4,5-dimethylthiazol-2-yl)-2,5-diphenyltetrazolium bromide). The tetrazolium is reduced, by the mitochondrial succinate dehydrogenase of the active live cells, into formazan, a purple-colored precipitate. The amount of precipitate formed is proportional to the amount of live cells but also to the metabolic activity of each cell. Thus, a simple assay of the optical density at 550 nm by spectroscopy makes it possible to determine the relative amount of live and metabolically active cells. […]"}, "[3]": {"test_system": "primary culture of cortical neurons", "assay": "Immunocytochemical test for neuronal survival (DAPI, CC3, TUJ1) in in vitro model of ischemia/reperfusion (OGD)", "type": "cell-based, mouse", "experimental": "as §1\nThe negative control consists of a group of neurons undergoing OGD (step 3) followed by reperfusion (step 4) without DX243 being present. This group of neurons is called “Ctrl” in FIGS. 2 to 4. […]\nas §3, with “The results are then compared to the results of the three control-group survival tests.” left out\nA first series of images is taken with chemical labelling by fluorescence. […] A second series of images is taken with labelling by fluorescence using the CC3 antibody. […]"}, "[4]": {"test_system": "male murine model of stroke, called Middle Cerebral Artery Occlusion (MCAO)", "assay": "In vivo stroke test, Middle Cerebral Artery Occlusion (MCAO) followed by reperfusion", "design": "species or system mouse", "conditions": "DX243 50 mg/Kg at reperfusion after 1 h occlusion"}, "[5]": {"conditions": "Example 5, FIG. 5, group A, 100 nmol·L^−1 during 4 h OGD and 24 h reperfusion"}, "[6]": {"conditions": "concentration not printed in the sentence (100 nmol·L^−1 per Example 1)"}, "[7]": {"conditions": "4 h OGD + 24 h reperfusion, DX243 treatment compared with the Ctrl group"}, "[8]": {"conditions": "observed at 24 h, vs non-treated (Ctrl) mice"}}, "data": [{"molecule": "CC(C)CCCC(C)[C@H]1CCC2C3C[C@@H](NCCc4cnc[nH]4)[C@@]4(O)C[C@@H](O)CC[C@]4(C)C3CC[C@@]21C", "note": "(some centres unmarked) [DX101]", "values": [{"measurement": "overall conclusion: neuroprotective effect against cerebral ischemia", "setting": "[1]", "value": "neuroprotective effect against cerebral ischemia"}, {"measurement": "neuronal protection (MTT)", "setting": "[2]", "value": "neuroprotective effect"}]}, {"molecule": "CC(C)CCCC(C)[C@H]1CCC2C3=C[C@@H](NCCCNCCCCN)[C@@]4(O)C[C@@H](O)CC[C@]4(C)C3CC[C@@]21C", "note": "(some centres unmarked) [DX242]", "values": [{"measurement": "survival rate compared with DX243", "setting": "[1]; [5]", "value": "greater than that of DX243"}, {"measurement": "neuronal protection (trypan blue)", "setting": "[1]; [6]", "value": "neuroprotective effect"}, {"measurement": "overall conclusion: neuroprotective effect against cerebral ischemia", "setting": "[1]", "value": "neuroprotective effect against cerebral ischemia"}, {"measurement": "neuronal protection (MTT)", "setting": "[2]", "value": "neuroprotective effect"}]}, {"molecule": "CC(C)CCCC(C)[C@H]1CCC2C3C[C@@H](NCCCN(CCCCNC(=O)OC(C)(C)C)C(=O)OC(C)(C)C)[C@@]4(O)C[C@@H](O)CC[C@]4(C)C3CC[C@@]21C", "note": "(some centres unmarked) [DX243BOC]", "values": [{"measurement": "survival rate compared with DX243", "setting": "[1]; [5]", "value": "lower than that of the group treated with DX243"}, {"measurement": "survival rate compared with NT neurons having undergone OGD and reperfusion", "setting": "[1]; [5]", "value": "lower than that of the group treated with DX243 and than that of the NT group having undergone OGD and reperfusion"}]}, {"molecule": "CC(C)CCCC(C)[C@H]1CCC2C3C[C@@H](NCCCNCCCCN)[C@@]4(O)C[C@@H](O)CC[C@]4(C)C3CC[C@@]21C", "note": "(some centres unmarked) [DX243]", "values": [{"measurement": "protection against neuronal death", "setting": "[3]; 4 h OGD + 24 h reperfusion, DX243 during OGD and reperfusion, or only during reperfusion, vs Ctrl group", "value": "partially protect against neuronal death"}, {"measurement": "proportion of cells undergoing apoptosis (CC3 antibody, activated caspase 3)", "setting": "[3]; [7]", "value": "decrease in the proportion of cells undergoing apoptosis"}, {"measurement": "proportion of live cells", "setting": "[3]; [7]", "value": "increase in the proportion of live cells"}, {"measurement": "neuron protection, post-OGD treatment for 24 h (reperfusion only) compared with treatment during OGD and reperfusion", "setting": "[3]; group B, DX243 only during 24 h reperfusion", "value": "protects the neurons even more efficiently"}, {"measurement": "behavioral deficits (neuroscore)", "setting": "[4]; observed at 24 h, living mice, vs non-treated (Ctrl) mice", "value": "decrease in the behavioral deficits"}, {"measurement": "percentage of dead mice", "setting": "[4]; [8]", "value": "decrease in the percentage of dead mice"}, {"measurement": "size of the lesion (infarcted region, TTC staining)", "setting": "[4]; [8]", "value": "decrease in the size of the lesion"}, {"measurement": "correlation between the decrease in blood flow (Laser Doppler Flowmetry) and the consequences of the stroke", "setting": "[4]; treated mice", "value": "there does not appear to be any correlation"}, {"measurement": "percentage of live cells (membrane integrity) related to normox group", "setting": "[1]; 4 h OGD + 24 h reperfusion, groups A and B, mainly 1 to 100 nmol·L^−1", "value": "restores the percentage of live cells to levels close to that observed in the normox group"}, {"measurement": "neuronal protection (trypan blue)", "setting": "[1]; 1000 nM", "value": "neuroprotective effect"}, {"measurement": "neuronal protection (trypan blue)", "setting": "[1]; concentrations ranging from 1 to 100 nM", "value": "significant neuronal protection"}, {"measurement": "overall conclusion: neuroprotective effect against cerebral ischemia", "setting": "[1]", "value": "neuroprotective effect against cerebral ischemia"}, {"measurement": "protection against decrease of metabolically active cells (survival) following OGD", "setting": "[2]; 4 h OGD + 24 h reperfusion, groups A and B, vs Ctrl group", "value": "partially protects against this decrease in survival"}, {"measurement": "neuronal protection (MTT)", "setting": "[2]", "value": "significant neuronal protection"}, {"measurement": "effect in group treated only during reperfusion compared with group A", "setting": "[2]; group B, DX243 only during the reperfusion for 24 h", "value": "all the more marked"}]}, {"molecule": "CC(C)CCCC(C)[C@H]1CCC2C3=C[C@@H](NCCCCNCCCN)[C@@]4(O)C[C@@H](O)CC[C@]4(C)C3CC[C@@]21C", "note": "(some centres unmarked) [DX244]", "values": [{"measurement": "survival rate compared with DX243", "setting": "[1]; [5]", "value": "greater than that of DX243"}, {"measurement": "neuronal protection (trypan blue)", "setting": "[1]; [6]", "value": "neuroprotective effect"}, {"measurement": "overall conclusion: neuroprotective effect against cerebral ischemia", "setting": "[1]", "value": "neuroprotective effect against cerebral ischemia"}, {"measurement": "neuronal protection (MTT)", "setting": "[2]", "value": "neuroprotective effect"}]}, {"molecule": "CC(C)CCCC(C)[C@H]1CCC2C3C[C@@H](NCCCCNCCCN)[C@@]4(O)C[C@@H](O)CC[C@]4(C)C3CC[C@@]21C", "note": "(some centres unmarked) [DX245]", "values": [{"measurement": "survival rate compared with DX243", "setting": "[1]; [5]", "value": "greater than that of DX243"}, {"measurement": "neuronal protection (trypan blue)", "setting": "[1]; 10 nM", "value": "neuroprotective effect"}, {"measurement": "neuronal protection (trypan blue)", "setting": "[1]; 100 nM", "value": "significant neuronal protection"}, {"measurement": "neuronal protection (trypan blue)", "setting": "[1]; 1000 nM", "value": "neuroprotective effect"}, {"measurement": "overall conclusion: neuroprotective effect against cerebral ischemia", "setting": "[1]", "value": "neuroprotective effect against cerebral ischemia"}, {"measurement": "neuronal protection (MTT)", "setting": "[2]", "value": "significant neuronal protection"}]}, {"molecule": "CC(=O)NCCCNCCCCN[C@@H]1CC2C3CC[C@H](C(C)CCCC(C)C)[C@@]3(C)CCC2[C@@]2(C)CC[C@H](O)C[C@]12O", "note": "(some centres unmarked) [DX249]", "values": [{"measurement": "overall conclusion: neuroprotective effect against cerebral ischemia", "setting": "[1]", "value": "neuroprotective effect against cerebral ischemia"}, {"measurement": "neuronal protection (MTT)", "setting": "[2]", "value": "neuroprotective effect"}]}, {"molecule": "CC(C)CCCC(C)[C@H]1CCC2C3C[C@@H](NCCCNCCCCNCCCN)[C@@]4(O)C[C@@H](O)CC[C@]4(C)C3CC[C@@]21C", "note": "(some centres unmarked) [DX301]", "values": [{"measurement": "overall conclusion: neuroprotective effect against cerebral ischemia", "setting": "[1]", "value": "neuroprotective effect against cerebral ischemia"}, {"measurement": "neuronal protection (MTT)", "setting": "[2]", "value": "neuroprotective effect"}]}, {"molecule": "CC(C)CCCC(C)[C@H]1CCC2C3=C[C@@H](NCCCNCCCCNCCCN)[C@@]4(O)C[C@@H](O)CC[C@]4(C)C3CC[C@@]21C", "note": "(some centres unmarked) [DX302]", "values": [{"measurement": "overall conclusion: neuroprotective effect against cerebral ischemia", "setting": "[1]", "value": "neuroprotective effect against cerebral ischemia"}, {"measurement": "neuronal protection (MTT)", "setting": "[2]", "value": "neuroprotective effect"}]}, {"molecule": "CC(C)CCCC(C)[C@H]1CCC2C3C[C@@H](NCCCCN)[C@@]4(O)C[C@@H](O)CC[C@]4(C)C3CC[C@@]21C", "note": "(some centres unmarked) [DX401]", "values": [{"measurement": "overall conclusion: neuroprotective effect against cerebral ischemia", "setting": "[1]", "value": "neuroprotective effect against cerebral ischemia"}, {"measurement": "neuronal protection (MTT)", "setting": "[2]", "value": "neuroprotective effect"}]}]}
